Values of other authors, collected in PubChem BioAssay AID1259409 (Chemical Carcinogenesis Research Information System (CCRIS), 2018).

System: rodent chemically induced tumor inhibition, incidence and multiplicity
Experiment: CCRIS tumor inhibitor studies
Conditions: Route [Inhibitor]: ORAL, Species: RAT

CCCCCCCCCCCCCCCC(=O)CC(=O)CCCCCCCCCCCCCCC
tumour outcome (control, treated, inhibition, significance) (Carcinogen: 2,2'-DIHYDROXY-DI-N-PROPYLNITROSAMINE, 53609-64-6, N-ETHYL-N-HYDROXYETHYLNITROSAMINE, 13147-25-6, 3,2'-DIMETHYL-4-AMINO-, Carcinogen: 2,2'-DIHYDROXY-DI-N-PROPYLNITROSAMINE, 53609-64-6, N-ETHYL-N-HYDROXYETHYLNITROSAMINE, 13147-25-6, 3,2'-DIMETHYL-4-AMINO-, Dose [Inhibitor]: 0, 0.2% IN DIET FOR 32 WK BEGINNING 1 WK POST CARCINOGEN TREATMENT (STUDY DURATION: 36 WK), Strain/Sex: F344/MALE, Target Tissue: Type of Lesion: LARGE INTESTINE: ADENOMA, Dose [Carcinogen]: 1000 MG/KG BW DHPN TWICE, 1500 MG/KG BW EHEN TWICE, 75 MG/KG BW 3 TIMES ADMINISTERED OVER FIRST 3 WK, Promoter: NONE USED): 7/14 (50%), 7/15 (47%), 6%, not significant | tumour outcome (control, treated, inhibition, significance) (Carcinogen: 2,2'-DIHYDROXY-DI-N-PROPYLNITROSAMINE, 53609-64-6, N-ETHYL-N-HYDROXYETHYLNITROSAMINE, 13147-25-6, 3,2'-DIMETHYL-4-AMINO-, Carcinogen: 2,2'-DIHYDROXY-DI-N-PROPYLNITROSAMINE, 53609-64-6, N-ETHYL-N-HYDROXYETHYLNITROSAMINE, 13147-25-6, 3,2'-DIMETHYL-4-AMINO-, Dose [Inhibitor]: 0, 0.2% IN DIET FOR 32 WK BEGINNING 1 WK POST CARCINOGEN TREATMENT (STUDY DURATION: 36 WK), Strain/Sex: F344/MALE, Target Tissue: Type of Lesion: LARGE INTESTINE: CARCINOMA, Dose [Carcinogen]: 1000 MG/KG BW DHPN TWICE, 1500 MG/KG BW EHEN TWICE, 75 MG/KG BW 3 TIMES ADMINISTERED OVER FIRST 3 WK, Promoter: NONE USED): 3/14 (21%), 2/15 (13%0, 38%, not significant | tumour outcome (control, treated, inhibition, significance) (Carcinogen: 2,2'-DIHYDROXY-DI-N-PROPYLNITROSAMINE, 53609-64-6, N-ETHYL-N-HYDROXYETHYLNITROSAMINE, 13147-25-6, 3,2'-DIMETHYL-4-AMINO-, Carcinogen: 2,2'-DIHYDROXY-DI-N-PROPYLNITROSAMINE, 53609-64-6, N-ETHYL-N-HYDROXYETHYLNITROSAMINE, 13147-25-6, 3,2'-DIMETHYL-4-AMINO-, Dose [Inhibitor]: 0, 0.2% IN DIET FOR 32 WK BEGINNING 1 WK POST CARCINOGEN TREATMENT (STUDY DURATION: 36 WK), Strain/Sex: F344/MALE, Target Tissue: Type of Lesion: LIVER: HEPATOCELLULAR CARCINOMA, Dose [Carcinogen]: 1000 MG/KG BW DHPN TWICE, 1500 MG/KG BW EHEN TWICE, 75 MG/KG BW 3 TIMES ADMINISTERED OVER FIRST 3 WK, Promoter: NONE USED): 6/14 (43%), 1/15 (7%), 84%, p<0.05 | tumour outcome (control, treated, inhibition, significance) (Carcinogen: 2,2'-DIHYDROXY-DI-N-PROPYLNITROSAMINE, 53609-64-6, N-ETHYL-N-HYDROXYETHYLNITROSAMINE, 13147-25-6, 3,2'-DIMETHYL-4-AMINO-, Carcinogen: 2,2'-DIHYDROXY-DI-N-PROPYLNITROSAMINE, 53609-64-6, N-ETHYL-N-HYDROXYETHYLNITROSAMINE, 13147-25-6, 3,2'-DIMETHYL-4-AMINO-, Dose [Inhibitor]: 0, 0.2% IN DIET FOR 32 WK BEGINNING 1 WK POST CARCINOGEN TREATMENT (STUDY DURATION: 36 WK), Strain/Sex: F344/MALE, Target Tissue: Type of Lesion: LUNG: ADENOMA, Dose [Carcinogen]: 1000 MG/KG BW DHPN TWICE, 1500 MG/KG BW EHEN TWICE, 75 MG/KG BW 3 TIMES ADMINISTERED OVER FIRST 3 WK, Promoter: NONE USED): 7/14 (50%), 6/15 (40%), 20%, not significant | tumour outcome (control, treated, inhibition, significance) (Carcinogen: 2,2'-DIHYDROXY-DI-N-PROPYLNITROSAMINE, 53609-64-6, N-ETHYL-N-HYDROXYETHYLNITROSAMINE, 13147-25-6, 3,2'-DIMETHYL-4-AMINO-, Carcinogen: 2,2'-DIHYDROXY-DI-N-PROPYLNITROSAMINE, 53609-64-6, N-ETHYL-N-HYDROXYETHYLNITROSAMINE, 13147-25-6, 3,2'-DIMETHYL-4-AMINO-, Dose [Inhibitor]: 0, 0.2% IN DIET FOR 32 WK BEGINNING 1 WK POST CARCINOGEN TREATMENT (STUDY DURATION: 36 WK), Strain/Sex: F344/MALE, Target Tissue: Type of Lesion: LUNG: CARCINOMA, Dose [Carcinogen]: 1000 MG/KG BW DHPN TWICE, 1500 MG/KG BW EHEN TWICE, 75 MG/KG BW 3 TIMES ADMINISTERED OVER FIRST 3 WK, Promoter: NONE USED): 1/14 (7%), 3/15 (20%, -186%, not significant | tumour outcome (control, treated, inhibition, significance) (Carcinogen: 2,2'-DIHYDROXY-DI-N-PROPYLNITROSAMINE, 53609-64-6, N-ETHYL-N-HYDROXYETHYLNITROSAMINE, 13147-25-6, 3,2'-DIMETHYL-4-AMINO-, Carcinogen: 2,2'-DIHYDROXY-DI-N-PROPYLNITROSAMINE, 53609-64-6, N-ETHYL-N-HYDROXYETHYLNITROSAMINE, 13147-25-6, 3,2'-DIMETHYL-4-AMINO-, Dose [Inhibitor]: 0, 0.2% IN DIET FOR 32 WK BEGINNING 1 WK POST CARCINOGEN TREATMENT (STUDY DURATION: 36 WK), Strain/Sex: F344/MALE, Target Tissue: Type of Lesion: THYROID GLAND: ADENOMA, Dose [Carcinogen]: 1000 MG/KG BW DHPN TWICE, 1500 MG/KG BW EHEN TWICE, 75 MG/KG BW 3 TIMES ADMINISTERED OVER FIRST 3 WK, Promoter: NONE USED): 3/14 (21%), 3/15 (20%), 5%, not significant | tumour outcome (control, treated, inhibition, significance) (Carcinogen: 2,2'-DIHYDROXY-DI-N-PROPYLNITROSAMINE, 53609-64-6, N-ETHYL-N-HYDROXYETHYLNITROSAMINE, 13147-25-6, 3,2'-DIMETHYL-4-AMINO-, Carcinogen: 2,2'-DIHYDROXY-DI-N-PROPYLNITROSAMINE, 53609-64-6, N-ETHYL-N-HYDROXYETHYLNITROSAMINE, 13147-25-6, 3,2'-DIMETHYL-4-AMINO-, Dose [Inhibitor]: 0, 0.2% IN DIET FOR 32 WK BEGINNING 1 WK POST CARCINOGEN TREATMENT (STUDY DURATION: 36 WK), Strain/Sex: F344/MALE, Target Tissue: Type of Lesion: URINARY BLADDER: CARCINOMA, Dose [Carcinogen]: 1000 MG/KG BW DHPN TWICE, 1500 MG/KG BW EHEN TWICE, 75 MG/KG BW 3 TIMES ADMINISTERED OVER FIRST 3 WK, Promoter: NONE USED): 1/14 (7%), 1/15 (7%), 0%, not significant | outcome (Carcinogen: 2,2'-DIHYDROXY-DI-N-PROPYLNITROSAMINE, 53609-64-6, N-ETHYL-N-HYDROXYETHYLNITROSAMINE, 13147-25-6, 3,2'-DIMETHYL-4-AMINO-, Carcinogen: 2,2'-DIHYDROXY-DI-N-PROPYLNITROSAMINE, 53609-64-6, N-ETHYL-N-HYDROXYETHYLNITROSAMINE, 13147-25-6, 3,2'-DIMETHYL-4-AMINO-, Dose [Inhibitor]: 0, 0.2% IN DIET FOR 32 WK BEGINNING 1 WK POST CARCINOGEN TREATMENT (STUDY DURATION: 36 WK), Strain/Sex: F344/MALE, Target Tissue: Type of Lesion: URINARY BLADDER: PAPILLOMA, Dose [Carcinogen]: 1000 MG/KG BW DHPN TWICE, 1500 MG/KG BW EHEN TWICE, 75 MG/KG BW ADMINISTERED OVER FIRST 3 WK, Promoter: NONE USED): 0/14 (0%), 3/15 (20%), -100%, not significant | tumour outcome (control, treated, inhibition, significance) (Carcinogen: 2,2'-DIHYDROXY-N-PROPYLNITROSAMINE, 53609-64-6, N-ETHYL-N-HYDROXYETHYL- NITROSAMINE, 13147-25-6, 3,2'-DIMETHYL-4-AMI, Carcinogen: 2,2'-DIHYDROXY-N-PROPYLNITROSAMINE, 53609-64-6, N-ETHYL-N-HYDROXYETHYL- NITROSAMINE, 13147-25-6, 3,2'-DIMETHYL-4-AMI, Dose [Inhibitor]: 0, 0.2% IN DIET BEGINNING 1 WK POST LAST CARCINOGEN DOSE AND CONTINUING FOR 32 WK (STUDY DURATION: 36 WK), Strain/Sex: F344/MALE, Target Tissue: Type of Lesion: LUNG: ADENOMA, Dose [Carcinogen]: 1000 MG/KG IP DHPN 2X , 1500 MG/KG GAV EHEN 2X AND 75 MG/KG SC DMAB 3X GIVEN OVER THE INITIAL 3 WK PERIOD AT 3-4 D INTER, Promoter: NONE USED): 7/14 (50%), 6/15 (40%), 20%, not calculated | tumour outcome (control, treated, inhibition, significance) (Carcinogen: 2-AMINO-1-METHYL-6-PHENYLIMIDAZO[4,5-B]PYRIDINE [105650-23-5], Dose [Inhibitor]: 0.1% IN DIET FOR 54 WK (STUDY DURATION: 54 WK), Strain/Sex: F344/DUCRJ/FEMALE, Target Tissue: Type of Lesion: COLON: ADENOMA OR ADENOCARCINOMA, Dose [Carcinogen]: 0.02% IN DIET FOR 54 WK (STUDY DURATION: 54 WK), Promoter: NONE): 3/20 (15%), 3/20 (15%), 0%, not significant | tumour outcome (control, treated, inhibition, significance) (Carcinogen: 2-AMINO-1-METHYL-6-PHENYLIMIDAZO[4,5-B]PYRIDINE [105650-23-5], Dose [Inhibitor]: 0.1% IN DIET FOR 54 WK (STUDY DURATION: 54 WK), Strain/Sex: F344/DUCRJ/FEMALE, Target Tissue: Type of Lesion: MAMMARY GLAND: ADENOMA OR ADENOCARCINOMA, Dose [Carcinogen]: 0.02% IN DIET FOR 54 WK (STUDY DURATION: 54 WK), Promoter: NONE): 8/20 (40%), 3/20 (15%), 63%, not significant
